Peptide text beside a SMILES is read from it.
Legend:
Format in all cases: functional
[1] = system: Mus musculus; experiment: Tested for analgesic activity, using Tail-Flick test in Mice at the dose of 1 ug/mouse administered icv after 60 min.
[2] = system: Mus musculus; experiment: Tested for analgesic activity, using Tail-Flick test in Mice at the dose of 2.5 ug/mouse administered icv after 30 min.
[3] = system: Mus musculus; experiment: Tested for analgesic activity, using Tail-Flick test in Mice at the dose of 0.5 ug/mouse administered icv after 5 min.
[4] = system: Mus musculus; experiment: Tested for analgesic activity, using Tail-Flick test in Mice at the dose of 0.5 ug/mouse administered icv after 60 min.
[5] = system: Mus musculus; experiment: Tested for analgesic activity, using Tail-Flick test in Mice at the dose of 1 ug/mouse administered icv after 30 min.
[6] = system: Mus musculus; experiment: Tested for analgesic activity, using Tail-Flick test in Mice at the dose of 1 ug/mouse administered icv after 5 min.
[7] = system: Mus musculus; experiment: Tested for analgesic activity, using Tail-Flick test in Mice at the dose of 2.5 ug/mouse administered icv after 60 min.
[8] = system: Mus musculus; experiment: Tested for analgesic activity, using Tail-Flick test in Mice at the dose of 2.5 ug/mouse administered icv after 5 min.
[9] = system: Mus musculus; experiment: Tested for analgesic activity, using Tail-Flick test in Mice at the dose of 0.5 ug/mouse administered icv after 30 min.
[10] = system: Mus musculus; experiment: Tested for analgesic activity, using Tail-Flick test in Mice at the dose of 0.1 ug/mouse administered icv after 60 min.
[11] = system: Mus musculus; experiment: Tested for analgesic activity, using Tail-Flick test in Mice at the dose of 0.1 ug/mouse administered icv after 30 min.
[12] = system: Mus musculus; experiment: Tested for analgesic activity, using Tail-Flick test in Mice at the dose of […] administered icv after 30 min
[13] = system: Mus musculus; experiment: Tested for analgesic activity, using Tail-Flick test in Mice at the dose of 0.5 ug/mouse administered icv after 5 min
[14] = system: Mus musculus; experiment: Tested for analgesic activity, using Tail-Flick test in Mice at the dose of 0.1 ug/mouse administered icv after 5 min.

Row | Structure (SMILES) | Change [1] [%] | Change [2] [%] | Change [3] [%] | Change [4] [%] | Change [5] [%] | Change [6] [%] | Change [7] [%] | Change [8] [%] | Change [9] [%] | Change [10] [%] | Change [11] [%] | Change [12] [%] | Change [13] [%] | Change [14] [%]
1 | COC(=O)C(Cc1cn(Sc2ccccc2NC(C)=O)c2ccccc12)NC(=O)C(N)CCCCN (configuration not stated) | 15 | 26 | 0 | 5 | 20 | 25 | 10 | 27 | -2 | – | – | – | – | –
2 | CSCC[C@H](N)C(=O)N[C@@H](C)C(=O)NCC(=O)NCC(=O)N[C@@H](Cc1ccc(O)cc1)C(N)=O (H-MAGGY-NH2) | 45 | – | – | 35 | 118 | 210 | – | – | – | -7 | 26 | 76 | 122 | 40
3 | COC(=O)CCSn1cc(CC(NC(=O)C(N)CCCCN)C(=O)OC)c2ccccc21 (configuration not stated) | 9 | 15 | 11 | 9 | 7 | 15 | 0 | 16 | 10 | – | – | – | – | –

Source: ChEMBL document CHEMBL1123838, “Analgesic dipeptide derivatives. 3. Synthesis and structure-activity relationships of o-nitrophenyl-modified analogues of the analgesic compound H-Lys-Trp(NPS)-OMe” (1987)
